Test results as given in patent US8759520B2, “Compounds for treating cancer” (Boehringer Ingelheim International GmbH, priority 2008, dated 2014).

Target: Bcl-2 (Homo sapiens, UniProt P10415)
Experiment: Homogeneous HTS assay for inhibitors of the Bcl-2 : Bak (72-87) BH3 domain interaction, fluorescence polarisation (2D-FIDA)
Assay type: binding
Conditions: fluorescence polarisation, fluorescent labelled Bak BH3 domain derived peptide; read-out: IC50 [μM] Bcl-2
From the text: FIG. 1 is a schematic drawing of the Bcl-2: Bak (72-87) interaction assay based on fluorescence polarisation.
The homogeneous HTS assay for inhibitors of the Bcl-2 is shown schematically in FIG. 1. BH3 domain interaction is based on fluorescence polarisation. The inherent rotational diffusion of the Bak BH3 domain derived fluorescent labelled peptide decreases upon binding to Bc1-2. This shift in rotational diffusion is quantitated using the two-dimensional fluorescence intensity distribution analysis (2D-FIDA; Kask et al. 2000, Biophys. J. 78: 1703-1713).
Two different BH3 domain derived peptide ligands were synthesised and subsequently fluorescently labelled: • a 16mer peptide covering amino acids 72-87 of the Bak protein; this peptide had been used by Wang and co-workers and Holinger and coworkers in their Bcl-2 protein binding studies; Wang and co-workers reported an equilibrium binding constant KD of ˜0.2 μM to Bcl-2 protein; • peptide sequence: GQVGRQLAIIGDDINR—N (Wang et al. 2002, Proc. Natl. Acad. Sci. U.S.A. 97: 7124-7129; Holinger et al. 1999, J. Biol. Chem. 274: 13298-13304).

Bcl-2, sequence (P10415 whole entry, species assumed, the tested form may be a part): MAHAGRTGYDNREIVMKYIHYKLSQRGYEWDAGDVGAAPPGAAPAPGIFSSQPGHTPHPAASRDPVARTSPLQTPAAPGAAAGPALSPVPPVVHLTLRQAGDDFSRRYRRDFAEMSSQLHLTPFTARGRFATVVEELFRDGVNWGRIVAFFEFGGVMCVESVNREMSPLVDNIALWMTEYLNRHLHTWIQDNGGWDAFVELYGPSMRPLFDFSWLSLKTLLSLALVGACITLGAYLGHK

| Compound | IC50 |
| --- | --- |
| N=c1n(Cc2ccccc2)c2ccccc2n1Cc1ccccn1 [Compound 1, 1-Benzyl-3-pyridin-2-ylmethyl-1,3-dihydro-benzoimidazol-2-ylideneamine] | 11 to 100 µM |
| N=c1n(Cc2ccccc2)c2ccccc2n1Cc1cccnc1 [Compound 2, 1-Benzyl-3-pyridin-3-ylmethyl-1,3-dihydro-benzoimidazol-2-ylideneamine] | > 100 µM |
| N=c1n(Cc2ccccc2)c2ccccc2n1Cc1ccncc1 [Compound 3, 1-Benzyl-3-pyridin-4-ylmethyl-1,3-dihydro-benzoimidazol-2-ylideneamine] | > 100 µM |
| N=c1n(Cc2ccccc2)c2ccccc2n1CC1CCOCC1 [Compound 4, 1-Benzyl-3-(tetrahydro-pyran-4-ylmethyl)-1,3-dihydro-benzoimidazol-2-ylideneamine] | > 100 µM |
| N=c1n(CCCOc2ccc(F)cc2)c2ccccc2n1Cc1ccc(Br)cc1 [Compound 5, 1-(4-Bromo-benzyl)-3-[3-(4-fluoro-phenoxy)-propyl]-1,3-dihydro-benzoimidazol-2-ylideneamine] | < 10 µM |
| N=c1n(CCCOc2ccc(F)cc2)c2ccccc2n1Cc1cccc(Br)c1 [Compound 6, 1-(3-Bromo-benzyl)-3-[3-(4-fluoro-phenoxy)-propyl]-1,3-dihydro-benzoimidazol-2-ylideneamine] | 11 to 100 µM |
| N=c1n(CCSc2ccccc2)c2ccccc2n1Cc1ccc(Br)cc1 [Compound 7, 1-(4-Bromo-benzyl)-3-(2-phenylsulfanyl-ethyl)-1,3-dihydro-benzoimidazol-2-ylideneamine] | 11 to 100 µM |
| CCOC(=O)Cn1c(=N)n(CCCOc2ccc(F)cc2)c2ccccc21 [Compound 8, {3-[3-(4-Fluoro-phenoxy)-propyl]-2-imino-2,3-dihydro-benzoimidazol-1-yl}-acetic acid ethyl ester] | 11 to 100 µM |
| N=c1n(CCCOc2ccc(Cl)cc2)c2ccccc2n1Cc1ccncc1 [Compound 9, 1-[3-(4-Chloro-phenoxy)-propyl]-3-pyridin-4-ylmethyl-1,3-dihydro-benzoimidazol-2-ylideneamine] | > 100 µM |
| N=c1n(CCCOc2ccc(F)cc2)c2ccccc2n1Cc1cccc(Cl)c1 [Compound 10, 1-(3-Chloro-benzyl)-3-[3-(4-fluoro-phenoxy)-propyl]-1,3-dihydro-benzoimidazol-2-ylideneamine] | 11 to 100 µM |
| N=c1n(CCCOc2ccc(F)cc2)c2ccccc2n1Cc1ccc(Cl)c(Cl)c1 [Compound 11, 1-(3,4-Dichloro-benzyl)-3-[3-(4-fluoro-phenoxy)-propyl]-1,3-dihydro-benzoimidazol-2-ylideneamine] | 11 to 100 µM |
| N=c1n(CCCOc2ccc(Cl)cc2)c2ccccc2n1Cc1ccc(Br)cc1 [Compound 12, 1-(4-Bromo-benzyl)-3-[3-(4-chloro-phenoxy)-propyl]-1,3-dihydro-benzoimidazol-2-ylideneamine] | 11 to 100 µM |
| N=c1n(Cc2ccc(Br)cc2)c2ccccc2n1CC1COc2ccccc2O1 (centres unmarked) [Compound 13, 1-(4-Bromo-benzyl)-3-(2,3-dihydro-benzo[1,4]dioxin-2-ylmethyl)-1,3-dihydro-benzoimidazol-2-ylideneamine] | 11 to 100 µM |
| N=c1n(CCCOc2ccc([N+](=O)[O-])cc2)c2ccccc2n1Cc1ccc(Br)cc1 [Compound 14, 1-(4-Bromo-benzyl)-3-[3-(4-nitro-phenoxy)-propyl]-1,3-dihydro-benzoimidazol-2-ylideneamine] | 11 to 100 µM |
| COC(=O)c1cccc(Cn2c(=N)n(CCCOc3ccc(F)cc3)c3ccccc32)c1 [Compound 15, 3-{3-[3-(4-Fluoro-phenoxy)-propyl]-2-imino-2,3-dihydro-benzoimidazol-1-ylmethyl}-benzoic acid methyl ester] | < 10 µM |
| N=c1n(CCCOc2ccc(F)cc2)c2ccccc2n1Cc1ccc(-c2ccc(F)cc2)cc1 [Compound 16, 1-(4′-Fluoro-biphenyl-4-ylmethyl)-3-[3-(4-fluoro-phenoxy)-propyl]-1,3-dihydro-benzoimidazol-2-ylideneamine] | 11 to 100 µM |

| Compound | IC50 |
| --- | --- |
| Cn1c(=N)n(Cc2ccc(N3CCN(Cc4ccccc4-c4ccccc4)CC3)cc2)c2ccccc21 [Compound 17, 1-[4-(4-Biphenyl-2-ylmethyl-piperazin-1-yl)-benzyl]-3-methyl-1,3-dihydro-benzoimidazol-2-ylideneamine] | 11 to 100 µM |
| N=c1n(Cc2ccccc2)c2ccccc2n1Cc1ccc(N2CCN(Cc3ccccc3-c3ccccc3)CC2)cc1 [Compound 18, 1-Benzyl-3-[4-(4-biphenyl-2-ylmethyl-piperazin-1-yl)-benzyl]-1,3-dihydro-benzoimidazol-2-ylideneamine] | < 10 µM |
| N=c1n(CCCOc2ccc(F)cc2)c2ccccc2n1Cc1ccc(N2CCN(Cc3ccc(Cl)cc3)CC2)cc1 [Compound 19, 1-{4-[4-(4-Chloro-benzyl)-piperazin-1-yl]-benzyl}-3-[3-(4-fluoro-phenoxy)-propyl]-1,3-dihydro-benzoimidazol-2-ylideneamine] | 11 to 100 µM |
| N=c1n(CCCOc2ccc(F)cc2)c2ccccc2n1Cc1ccc(N2CCN(Cc3ccccc3Cl)CC2)cc1 [Compound 20, 1-{4-[4-(2-Chloro-benzyl)-piperazin-1-yl]-benzyl}-3-[3-(4-fluoro-phenoxy)-propyl]-1,3-dihydro-benzoimidazol-2-ylideneamine] | < 10 µM |
| N=c1n(CCCOc2ccc(F)cc2)c2ccccc2n1Cc1ccc(N2CCN(Cc3cccc(Cl)c3)CC2)cc1 [Compound 21, 1-{4-[4-(3-Chloro-benzyl)-piperazin-1-yl]-benzyl}-3-[3-(4-fluoro-phenoxy)-propyl]-1,3-dihydro-benzoimidazol-2-ylideneamine] | < 10 µM |
| N=c1n(CCCOc2ccc(F)cc2)c2ccccc2n1Cc1ccc(N2CCN(Cc3ccccc3)CC2)cc1 [Compound 22, 1-[4-(4-Benzyl-piperazin-1-yl)-benzyl]-3-[3-(4-fluoro-phenoxy)-propyl]-1,3-dihydro-benzoimidazol-2-ylideneamine] | < 10 µM |
| N=c1n(CCCOc2ccc(F)cc2)c2ccccc2n1Cc1ccc(N2CCN(Cc3ccccc3-c3ccc(Cl)cc3)CC2)cc1 [Compound 24, 1-{4-[4-(4′-Chloro-biphenyl-2-ylmethyl)-piperazin-1-yl]-benzyl}-3-[3-(4-fluoro-phenoxy)-propyl]-1,3-dihydro-benzoimidazol-2-ylideneamine] | < 10 µM |
| N=c1n(CCCOc2ccc(F)cc2)c2ccccc2n1Cc1ccc(N2CCN(Cc3ccccc3-c3ccccc3)CC2)cc1 [Compound 25, 1-[4-(4-Biphenyl-2-ylmethyl-piperazin-1-yl)-benzyl]-3-[3-(4-fluoro-phenoxy)-propyl]-1,3-dihydro-benzoimidazol-2-ylideneamine] | < 10 µM |
| N=c1n(CCCOc2ccc(F)cc2)c2ccccc2n1Cc1cccc(N2CCN(Cc3ccccc3-c3ccccc3)CC2)c1 [Compound 26, 1-[3-(4-Biphenyl-2-ylmethyl-piperazin-1-yl)-benzyl]-3-[3-(4-fluoro-phenoxy)-propyl]-1,3-dihydro-benzoimidazol-2-ylideneamine] | < 10 µM |
| N=c1n(CCCOc2ccc(F)cc2)c2ccccc2n1Cc1cccc(N2CCN(Cc3ccccc3-c3ccc(Cl)cc3)CC2)c1 [Compound 27, 1-{3-[4-(4′-Chloro-biphenyl-2-ylmethyl)-piperazin-1-yl]-benzyl}-3-[3-(4-fluoro-phenoxy)-propyl]-1,3-dihydro-benzoimidazol-2-ylideneamine] | < 10 µM |
| N=c1n(CCCOc2ccccc2)c2ccccc2n1Cc1ccc(N2CCN(Cc3ccccc3-c3ccccc3)CC2)cc1 [Compound 28, 1-[4-(4-Biphenyl-2-ylmethyl-piperazin-1-yl)-benzyl]-3-(3-phenoxy-propyl)-1,3-dihydro-benzoimidazol-2-ylideneamine] | < 10 µM |
| N=c1n(CCCOc2ccccc2)c2ccccc2n1Cc1cccc(N2CCN(Cc3ccccc3-c3ccccc3)CC2)c1 [Compound 29, 1-[3-(4-Biphenyl-2-ylmethyl-piperazin-1-yl)-benzyl]-3-(3-phenoxy-propyl)-1,3-dihydro-benzoimidazol-2-ylideneamine] | < 10 µM |
| N=c1n(CCCOc2ccccc2)c2ccccc2n1Cc1ccc(N2CCN(Cc3ccccc3-c3ccc(Cl)cc3)CC2)cc1 [Compound 30, 1-{4-[4-(4′-Chloro-biphenyl-2-ylmethyl)-piperazin-1-yl]-benzyl}-3-(3-phenoxy-propyl)-1,3-dihydro-benzoimidazol-2-ylideneamine] | < 10 µM |
| CC1(C)CCC(c2ccc(Cl)cc2)=C(CN2CCN(c3cccc(Cn4c(=N)n(CCCOc5ccc(F)cc5)c5ccccc54)c3)CC2)C1 [Compound 31, 1-(3-{4-[2-(4-Chloro-phenyl)-5,5-dimethyl-cyclohex-1-enylmethyl]-piperazin-1-yl}-benzyl)-3-[3-(4-fluoro-phenoxy)-propyl]-1,3-dihydro-benzoimidazol-2-ylideneamine] | < 10 µM |
| CC1(C)CCC(c2ccc(Cl)cc2)=C(CN2CCN(c3ccc(Cn4c(=N)n(CCCOc5ccccc5)c5ccccc54)cc3)CC2)C1 [Compound 32, 1-(4-{4-[2-(4-Chloro-phenyl)-5,5-dimethyl-cyclohex-1-enylmethyl]-piperazin-1-yl}-benzyl)-3-(3-phenoxy-propyl)-1,3-dihydro-benzoimidazol-2-ylideneamine] | < 10 µM |
| N=c1n(CCSc2ccccc2)c2ccccc2n1Cc1ccc(N2CCN(Cc3ccccc3-c3ccc(Cl)cc3)CC2)cc1 [Compound 33, 1-{4-[4-(4′-Chloro-biphenyl-2-ylmethyl)-piperazin-1-yl]-benzyl}-3-(2-phenylsulfanyl-ethyl)-1,3-dihydro-benzoimidazol-2-ylideneamine] | < 10 µM |
